The record followed here is paper PMC11477298, “Small Molecules Inducing Autophagic Degradation of Expanded Polyglutamine Protein through Interaction with Both Mutant ATXN3 and LC3” (International Journal of Molecular Sciences, 2024).

What all share (format): cell-based, human
Experiment [1] relates to ATXN3-Q75-GFP SH-SY5Y cells. Description: High-content neurite outgrowth assay. Conditions: compound 10 µM, range over the four named compounds; for Neurite branch: untreated 1.16; for Neurite process: untreated 2.41; for Neurite length: untreated 23.2 µm. Here is the method:
ATXN3-Q75-GFP SH-SY5Y cells (5 × 10^4/well) were plated onto 24-well plates, with retinoic acid addition (10 µM; Sigma-Aldrich) on day 1 to initiate neuronal differentiation. On day 2, the cells were pretreated with disaccharide trehalose (10 mM, as a positive control) or the studied compounds (10 μM) for 8 h, followed by the addition of doxycycline (5 μg/mL, Sigma-Aldrich) to induce ATXN3-Q75-GFP expression. The cells were kept in the medium containing retinoic acid, the test compound, and doxycycline for 6 days, with the culture medium changed on day 5. ATXN3-Q75 aggregation and neurite outgrowth assays were performed on day 8 using a high-content imaging system (ImageXpress Micro Confocal; Molecular Devices).
For the aggregation assay, cells were stained with Hoechst 33342 (0.1 µg/mL; Sigma-Aldrich) at 37 °C for 30 min. Images of the cells were automatically obtained at excitation/emission wavelengths of 482/536 nm (FITC [fluorescein isothiocyanate] filter) for enhanced GFP and 377/447 nm (DAPI [4′,6-diamidino-2-phenylindole] filter) for nucleus counting. ATXN3-Q75 aggregation was determined by Transfluor technology based on GFP fluorescence intensity. For the neurite outgrowth assay, cells were fixed with 4% paraformaldehyde for 30 min, permeabilized with 0.1% Triton X-100 for 10 min, and blocked by non-specific binding with 3% bovine serum albumin for 20 min. The primary TUBB3 (neuronal class III β-tubulin) antibody (1:1000; BioLegend #802001, San Diego, CA, USA) was used to stain cells at 4 °C overnight, followed by Alexa Fluor 555-donkey anti-rabbit IgG secondary antibody (1:1000; Invitrogen #A-31572) staining for 2 h at room temperature. Nuclei were detected using DAPI (0.1 μg/mL; Sigma-Aldrich). Cell images were obtained at excitation/emission wavelengths of 531/593 nm (TRITC [tetramethylrhodamine] filter) for stained neurites and 377/447 nm (DAPI filter) for nuclei. To quantify neurite outgrowth, microscopic images were segmented with multi-colored masks to assign each outgrowth to a cell body for quantification. Neurite total length (μm) and numbers of process (primary neurites originating from neuronal cell body) and branch (secondary neurites extended from primary neurites) were analyzed (Neurite Outgrowth Application Module; Molecular Devices). In general, […] in each biological replicate were analyzed.

For experiment [2], the system named is ATXN3-Q75-GFP SH-SY5Y cells. Put plainly: Western blot of LC3-II:LC3-I ratio. The conditions noted are these: compound 10 μM; uninduced = 100%, untreated induced 76%; range over trehalose and the four compounds. As to the method:
For the immunoblotting analysis, ATXN3-Q75-GFP SH-SY5Y cells were seeded in 6-well plates (3 × 10^5/well) and treated with retinoic acid, test compounds, and doxycycline, as described. On day 8, cells were collected and lysed in buffer (50 mM Tris-HCl pH 8.0, 150 mM NaCl, 2 mM EDTA pH 8.0, 0.1% SDS, 0.5% sodium deoxycholate, 1% NP-40) containing the protease inhibitor cocktail (Sigma-Aldrich). After sonication, the lysates were centrifuged (12,000× g for 10 min at 4 °C) and protein concentrations determined (Bradford protein assay; Bio-Rad, Hercules, CA, USA). Aliquots of protein (20 µg) were separated by electrophoresis using 12% SDS-polyacrylamide gel followed by transfer to a polyvinylidene fluoride membrane. After being blocked with 5% skim milk at 4 °C overnight, the membrane was stained with LC3 (1:1000; Medical & Biological Laboratories Co. #PM036, Tokyo, Japan) or GAPDH (glyceraldehyde 3-phosphate dehydrogenase) (1:1000, MDBio #30000002, Taipei, Taiwan) primary antibody at 4 °C overnight. The immune complexes were detected using HRP-conjugated goat anti-rabbit IgG antibody and chemiluminescent substrate, as described.
Background: Immunoblotting shows a protein as a band on a membrane.

The test system of experiment [3] is 293T cells co-expressing ATXN3-Q75-VC and VN-LC3. Put plainly: BiFC high-content analysis of transfected 293T cells. Conditions: compound 10 μM; 24 h post-induction; untreated = 100%; range over the three named compounds. From the text: pTRE3G-BI-VN-LC3-ATXN3-Q14−75-VC was constructed by subcloning the ATXN3-Q14−75-VC KpnI-XbaI fragment and VN-LC3 BamHI fragment of the aforementioned plasmids into the corresponding restriction sites in multiple cloning site (MCS)-2 (ATXN3-Q14−75-VC fragment) or MCS-1 (VN-LC3 fragment) of the pTRE3G-BI vector (Clontech, Mountain View, CA, USA). The resulting plasmid allows the simultaneous expression of ATXN3-Q14−75-VC and VN-LC3 proteins from a bidirectional, Tet-responsive promoter that binds the Tet-On 3G trans-activator protein in the presence of doxycycline and co-transfected pCMV-Tet3G. Next, 293T cells (2 × 10^5) were plated onto 6-well plates on day 1. Upon the next day, the constructed pTRE3G-BI-VN-LC3-ATXN3-Q 14−75-VC (2 μg) together with pCMV-Tet3G (0.5 μg) were transiently co-transfected into cells using GenJet in vitro DNA transfection reagent (SignaGen Laboratories #SL100488, Rockville, MD, USA). Doxycycline (1 μg/mL) was added to cells to induce ATXN3-Q14−75-VC and VN-LC3 expression on day 3. Cell lysates were prepared at 24 h post-induction and analyzed by Western blot using ataxin-3 (1:1000; Invitrogen #PA5-26251) or LC3 (1:2000; MBL International #PM036) antibody. In addition, at 0, 6, 9, 12, and 24 h post-transfection, the pTRE3G-BI-VN-LC3-ATXN3-Q75-VC transfected cells were fixed, permeabilized, blocked, and stained with 5TF1-1C2 (1:1000; Merck #MAB1574) antibody at 4 °C overnight, followed by Cy5-donkey anti-mouse IgG secondary antibody (1:1000; Jackson ImmunoResearch #715-175-151) staining for 2 h at room temperature. Nuclei were counterstained with DAPI (0.1 μg/mL; Sigma-Aldrich). Cell images were obtained at excitation/emission wavelengths of 482/536 nm (FITC filter) for Venus, 631/692 nm (Cy5 filter) for stained expanded ATXN3-Q75 protein, and 377/447 nm (DAPI filter) for detecting nuclei (ImageXpress Micro Confocal; Molecular Devices).
On day 3, doxycycline (1 μg/mL) was added to the aforementioned transfected 293T cells along with NC009-1, -2, or -6 or LM-031 (10 μM). At 24 h post-transfection, the transfected cells were fixed, permeabilized, blocked, and stained with 5TF1-1C2 antibody, as described. After nucleus staining (DAPI, 0.1 μg/mL), the captured images were analyzed as described for overlapped ATXN3-Q75 and Venus signals and the green fluorescence of Venus-tagged LC3 puncta using the high-content imaging system, as described.

Take `O=C(c1ccccc1)c1cc2c(O)cccc2oc1=O` [LM-031]: in experiment [1], the Neurite branch is reported as 1.34–1.37, the Neurite process is 2.55–2.57 and the Neurite length is 26.1–26.9 µm. For the same molecule, the “Relative LC3-II:LC3-I ratio” value in experiment [2] is 102–124%. Besides, in experiment [3], the “Green fluorescence of Venus-tagged LC3 puncta” value (“Green fluorescence” for short) is listed as 121–122%; the “Overlapping of green (Venus) and red (ATXN3-Q75) signals” value (“Overlapping of green (Venus) and red” for short) is recorded as 117–119%.

For the molecule `CC(=O)/C(=C\c1ccccc1[N+](=O)[O-])Cc1c[nH]c2ccccc12` [NC009-1], in experiment [1], the Neurite branch is on record as 1.34–1.37, the Neurite process is given as 2.55–2.57 and the Neurite length is listed as 26.1–26.9 µm. Besides, the “Relative LC3-II:LC3-I ratio” value in experiment [2] is given as 102–124%. In experiment [3], the “Green fluorescence” value was 121–122%; the “Overlapping of green (Venus) and red” value is listed as 117–119%.

Turning to `CC(=O)/C(=C\c1ccccc1[N+](=O)[O-])Cc1c(C)[nH]c2ccccc12` [NC009-2], in experiment [1], the Neurite branch is given as 1.34–1.37, the Neurite process is on record as 2.55–2.57 and the Neurite length is recorded as 26.1–26.9 µm. Moreover, the “Relative LC3-II:LC3-I ratio” value in experiment [2] is given as 102–124%. In experiment [3], the “Green fluorescence” value is given as 121–122%; the “Overlapping of green (Venus) and red” value is recorded as 117–119%.
